Here are results for 5 molecules from patent publication EP4663632A1, “COMPOUNDS USEFUL FOR THE MODULATION OF THE ACTIVITY OF STING” (Sulis Therapeutics ApS, priority 2024, dated 2025).

SMILES strings stand for the structures.

Assay [1] deals with T1, C-terminal domain (CTD) of human STING (Homo sapiens, UniProt Q86WV6). Nature of the assay: STING binding FP assay I. Particulars: 35 nM STING, 4 nM Probe 1. Also noted: recombinant human STING protein (155-379). Here is the method: (§1) The interaction between molecules and the C-terminal domain (CTD) of human STING was evaluated using a competition binding assay. In this assay, recombinant human STING protein (155-379) and a STING binding fluorescent probe were employed. Upon binding of the probe to STING, the rotation of the fluorescent probe is slowed due to the larger molecular size of the protein-bound complex. As a result, emitted light retains its plane of polarization, leading to an increase in fluorescence polarization. Molecules competing for the probe binding site displace the probe, which leads to rapid randomization of the polarization plane of the emitted light and a subsequent decrease in measured fluorescence polarization signal. Change in polarization was measured, allowing a comparative evaluation of the binding affinities of different compounds to the target protein.
T1 sequence (Q86WV6 155-379): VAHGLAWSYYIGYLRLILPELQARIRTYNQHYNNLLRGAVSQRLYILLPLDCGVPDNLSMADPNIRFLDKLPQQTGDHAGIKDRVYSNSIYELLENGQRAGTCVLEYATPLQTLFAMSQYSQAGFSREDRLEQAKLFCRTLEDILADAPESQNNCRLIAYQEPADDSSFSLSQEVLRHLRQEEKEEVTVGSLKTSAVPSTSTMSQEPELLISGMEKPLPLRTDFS
(§2) The assay was performed in 96-well plates (ThermoFisher, cat.# 237108) containing 100µl : 10 µL test compound in 10% DMSO and buffer A (150 mM NaCl, 50 mM HEPES pH 7.5, 1 mM DTT) + 90 µL prepared master mix solution of: 4 nM fluorescein-labelled STING ligand (Probe 1; synthesis described above) in buffer A + 0.055% Tween-20 (v/v) and 35 nM STING in buffer A. Post mixing, plates were agitated at 600rpm and incubated for 20 min at room temperature. Subsequent measurements of the fluorescence polarization signal were made on a BioTek Synergy-H1 plate reader, using a polarization filter; Exc: 485/20 nm, Em: […]) with a gain-setting of 75. IC50 values were determined using a standard non-linear regression four-parameter curve fit in Graphpad Prism.

For assay [2], the target named is T1, C-terminal domain (CTD) of human STING. Nature of the assay: STING binding FP assay II. Particulars: 7 nM STING. Further details: recombinant human STING protein (155-379). The protocol: as §1, §2
The procedure for STING binding FP assay II is the same as described for STING binding FP assay I, except for a lower STING concentration. In STING binding FP assay II, a concentration of 7 nM STING in buffer A was used.

As for `CCn1nc(C)cc1C(=O)N=c1n(C)c2cc(C(N)=O)ccc2n1CCC(CCn1c(=NC(=O)c2cc(C)nn2CC)n(C)c2cc(C(N)=O)ccc21)OCC(=O)NCCOCCOCCOCCNc1cccc2c1C(=O)N(C1CCC(=O)NC1=O)C2=O` (stereo not shown) [Example 1, 1-[3-({N-2-[2-(2-{2-[2-(2,6-Dioxo-3-piperidyl)-1,3-dioxo-4-isoindolinylamino]ethoxy}ethoxy)ethoxy]ethylcarbamoyl}methoxy)-5-{5-carbamoyl-2-[(1-ethyl-3-methyl-5-pyrazolyl)carbonylimino]-3-methyl-2,3-dihydro-1H-1,3-benzimidazol-1-yl}pentyl]-2-[(1-ethyl-3-methyl-5-pyrazolyl)carbonylimino]-3-methyl-2,3-dihydro-1H-1 ,3-benzimidazole-5-carboxamide], the IC50 in assay [1] is below 30 nM.

Consider `CCn1nc(C)cc1C(=O)N=c1n(C)c2cc(C(N)=O)ccc2n1CCC(CCn1c(=NC(=O)c2cc(C)nn2CC)n(C)c2cc(C(N)=O)ccc21)OCC(=O)NCCOCCOCCOCCOCC(=O)N[C@H](C(=O)N1C[C@H](O)C[C@H]1C(=O)NCc1ccc(-c2scnc2C)cc1)C(C)(C)C` (stereo partly shown) [Example 5], for which the figures for the concentration for half-maximal inhibition (IC50) in assay [1] and in assay [2] were below 30 nM and 2.4 nM, respectively.

Turning to `CCn1nc(C)cc1C(=O)N=c1n(C)c2cc(C(N)=O)ccc2n1CCC(CCn1c(=NC(=O)c2cc(C)nn2CC)n(C)c2cc(C(N)=O)ccc21)OCC(=O)O` (stereo not shown) [Building Block G-4, (3-{5-Carbamoyl-2-[(1-ethyl-3-methyl-5-pyrazolyl)carbonylimino]-3-methyl-2,3-dihydro-1H-1,3-benzimidazol-1-yl}-1-(2-{5-carbamoyl-2-[(1-ethyl-3-methyl-5-pyrazolyl)carbonylimino]-3-methyl-2,3-dihydro-1H-1 ,3-benzimidazol-1-yl}ethyl)propoxy)acetic acid], the IC50 in assay [1] was below 30 nM.

Regarding `CCn1nc(C)cc1C(=O)N=c1n(C)c2cc(C(N)=O)ccc2n1CCC(CCn1c(=NC(=O)c2cc(C)nn2CC)n(C)c2cc(C(N)=O)ccc21)OCC(=O)NCCOCCOCCOCCOCCNc1cccc2c1C(=O)N(C1CCC(=O)NC1=O)C2=O` (stereo not shown) [Example 29, 1-{3-[(N-2-{2-[2-(2-{2-[2-(2,6-Dioxo-3-piperidyl)-1,3-dioxo-4-isoindolinylamino]ethoxy}ethoxy)ethoxy]ethoxy}ethylcarbamoyl)methoxy]-5-{5-carbamoyl-2-[(1-ethyl-3-methyl-5-pyrazolyl)carbonylimino]-3-methyl-2,3-dihydro-1H-1 ,3-benzimidazol-1-yl}pentyl}-2-[(1-ethyl-3-methyl-5-pyrazolyl)carbonylimino]-3-methyl-2,3-dihydro-1H-1,3-benzimidazole-5-carboxamide], the 50% inhibitory concentration (IC50) in assay [1] is below 30 nM; in assay [2], 1.8 nM.

Turning to `CCn1nc(C)cc1C(=O)N=c1n(C)c2cc(C(N)=O)ccc2n1CCC(CCn1c(=NC(=O)c2cc(C)nn2CC)n(C)c2cc(C(N)=O)ccc21)OCC(=O)NCCOCCOCCOCC(=O)N[C@H](C(=O)N1C[C@H](O)C[C@H]1C(=O)NCc1ccc(-c2scnc2C)cc1)C(C)(C)C` (stereo partly shown) [Example 28], in assay [1], the IC50 is below 30 nM.

The IC50 is the concentration at which inhibition is half-maximal.
